# According to patent US20090233307A1, “METHODS FOR DETECTION OF SINGLE STRAND BREAKS IN DNA” (The University of North Carolina at Chapel Hill, priority 2008, published 2009):
# What was measured:
# DT40 cells = test: SSB repair through NAD(P)H depletion, DT40 cells; assay type: cell-based, chicken; conditions: 1 mM MMS for up to 4 hours, DT40 cells
# Procedure: SSB repair capacity was determined by a real-time colorimetric assay that measures intracellular NAD(P)H levels (Tano et al., DNA Repair, 6, 869-875 (2007)). PARP-1 activation during SSB repair leads to NAD^+ consumption, which can be indirectly monitored through NAD(P)H depletion (Nakamura et al., Nucleic Acids Res., 31, e104 (2003)). Briefly, 5×10^3 cells/well were seeded into a 96-well plate. After a 30 minute incubation period, the cells were treated with 1 mM MMS quickly followed by the addition of a dye containing XTT (Sigma) and 1-methoxy PMS (Sigma). For up to 4 hours, the NAD(P)H-dependent conversion of the XTT tetrazolium salt to a yellow colored formazan dye was measured spectrophotometrically. Decreases in intracellular NAD(P)H levels were determined through comparison of values to those of the PBS control. Established methods for detecting SSBs have not been adequately characterized for pH effects on DNA structure and chemistry and also lack a high specificity for SSBs, primarily because of artifactual SSB formation. […] The accumulation of SSBs leads to PARP-1 over-activation and the consumption of NAD+, which is indirectly monitored in living cells through the measurement of intracellular NAD(P)H depletion using tetrazolium salts, such as XTT, during chemical exposure (Tano et al., DNA Repair, 6, 869-875 (2007)). […]
# isolated, genomic DNA = test: SSB formation at N7-methylguanine adducts, isolated DNA, NaOH or piperidine denaturation, AGE; conditions: DNA + 1 mM MMS + 30 mM OTX 1 hour
# Procedure: To visualize the conversion of MMS induced N7-methylguanine (N7-meG) adducts into SSBs, the AGE assay described above was modified with a piperidine treatment (Mattes et. al., Biochem. Biophys. Acta 868:71-76 (1986)). Equal amounts of DNA (25 μg) were incubated for 1 hour at 37° C. in the presence of 30 mM OTX (Aldrich) and 1 mM MMS or PBS in 50 mM HEPES buffer (pH 7). Treated DNA was washed and collected using microcon YM-3 centrifugal filter devices (Amicon Bioseparations). The treated DNA was then incubated with alkaline buffer (pH≧12.8) that contained either 100 mM NaOH or 1 M piperidine for 20 minutes at 37° C. This DNA was then washed and collected by centrifugal filter devices, and the concentrations determined by UV. DNA (3-5 μg) from each sample received loading dye and was loaded onto a 0.7% agarose gel prepared as previously described. Electrophoresis, neutralization, staining, and image analysis were performed as described above.
# ALSs such as N7-methylguanine (N7-meG), the predominate lesion formed by monofunctional alkylating agents, are generated during MMS exposure (Wyatt et. al., Chem. Res. Toxicol. 19: 1580-1594 (2006)). In the absence of OTX, ALSs other than AP sites may contribute to SSBs detected during AGE. […]
# Pol β null cells = test: Alkaline gel electrophoresis with or without OTX of DNA from exposed Pol β null cells; assay type: cell-based, chicken; conditions: 1 mM MMS, 1-4 hours
# Procedure: DT40 and Pol β null cells were seeded into 100 cm dishes and allowed to divide overnight to reach the density of 1×10^6 cells/mL. Cells were exposed to a continuous treatment of 1 mM methyl methanesulfonate (MMS; Aldrich) for up to 4 hours. Control cells received 1× phosphate buffered saline (PBS) for 0.5 hour. After incubation, cells were harvested, washed with chilled 1× PBS, pelleted, and stored at −80° C. until DNA isolation. Using this protocol, DT40 cells were also incubated in the absence of chemical to obtain a stock of untreated DNA.
# DNA was extracted using a PureGene® DNA extraction kit (Gentra Systems. Inc.) with modifications as described previously (Nakamura et al., J. Biol. Chem., 275, 5323-5328 (2000)).
# An alkaline gel electrophoresis protocol (AGE) (Drouin et al., in: Technologies for Detection of DNA Damage and Mutations (G. P. Pfeifer, ed.). Plenum Press, New York, N.Y., pp. 37-43 (1996)) with modifications was used to assess SSBs and ALSs in DNA from exposed cells. The 0.7% agarose gel was prepared in gel buffer (50 mM NaCl, 1 mM EDTA, pH 7) and deionized water. After forming, the gel was soaked in mild alkaline running buffer (30 mM NaOH, 1 mM EDTA, pH 12.4) for at least 30 minutes. Equal amounts of DNA (3-5 μg) were incubated for 1 hour at 37° C. in the presence or absence of 30 mM OTX (Aldrich) in 50 mM HEPES buffer. […]
smiles,measurement,setting,value
"COS(C)(=O)=O [MMS, methyl methanesulfonate]",intracellular NAD(P)H levels,DT40 cells,time-dependent decrease in intracellular NAD(P)H levels
same,"amount of SSBs after NaOH induced DNA denaturation, MMS treated vs control DNA","isolated, genomic DNA; 100 mM NaOH 20 minutes",no difference in the amount of SSBs
same,DNA migration after piperidine treatment,"isolated, genomic DNA; 1 M piperidine 20 minutes, vs PBS control",notable increase in DNA migration
same,SSB accumulation (DNA migration) by OTX-AGE,Pol β null cells,clear time-dependent increase in DNA migration
